Laboratory results published in patent US12391657B2, “Small molecules that bind and/or modulate differentforms of tau oligomers” (The Board of Regents of the University of Texas System, priority 2019, dated 2025).
Entries after “also recorded” stand apart in the source; their conditions may differ.

Target: T1, recombinant tau oligomers (TauO) (Homo sapiens, UniProt P10636)
T1 construct: made in house
Test: Direct ELISA of recombinant tau oligomers with and without compounds
Assay type: biochemical
Settings: increased concentration of curcumin
Experimental: ELISA assay was conducted as previously described (Lasagna-Reeves, Castillo-Carranza et al. 2010). […] After washing three times with TBS-T, plates were blocked for 1 hour at 37° C. with 120 μl of 10% non-fat milk in TBS-T. Plates were then washed three times with TBS-T, before probing with 100 μL of primary antibodies for 1 hour at 37° C., T22 (diluted 1:250 in 5% non-fat milk in TBS-T) and Tau 5 (diluted 1:10000 in 5% non-fat milk in TBS-T), respectively . Plates were then washed three times with TBS-T, and probed with 100 μL of horseradish peroxidase-conjugated anti-rabbit or anti-mouse IgG (Promega, Madison, WI) (diluted 1:10000 in 5% non-fat milk in TBS-T). After 1 hour of incubation at 37° C., plates were washed three times with TBS-T and developed with 3, 3, 5, 5-tetramethylbenzidine (TMB-lcomponent substrate, KPL, Gaithersburg, MD). The reaction was stopped by using 100 μL 1M HCl and samples were read at 450 nm using POLARstar OMEGA plate reader. All measurements were performed in triplicate
Compounds were dissolved in ETOH 75%/DMSO (5:1) at a final concentration of 5 mM and diluted in 1× PBS or ddH2O for incubation or toxicity assay (final concentration 5 μM). […]
ELISA assay was conducted as previously described (Lasagna-Reeves, Castillo-Carranza et al. 2010). […] The reaction was stopped using 100 μl of 1M HCl and absorbance was read at 450 nm using POLARstar OMEGA plate reader. […]

T1 sequence (P10636 1-441 isoform P10636-8): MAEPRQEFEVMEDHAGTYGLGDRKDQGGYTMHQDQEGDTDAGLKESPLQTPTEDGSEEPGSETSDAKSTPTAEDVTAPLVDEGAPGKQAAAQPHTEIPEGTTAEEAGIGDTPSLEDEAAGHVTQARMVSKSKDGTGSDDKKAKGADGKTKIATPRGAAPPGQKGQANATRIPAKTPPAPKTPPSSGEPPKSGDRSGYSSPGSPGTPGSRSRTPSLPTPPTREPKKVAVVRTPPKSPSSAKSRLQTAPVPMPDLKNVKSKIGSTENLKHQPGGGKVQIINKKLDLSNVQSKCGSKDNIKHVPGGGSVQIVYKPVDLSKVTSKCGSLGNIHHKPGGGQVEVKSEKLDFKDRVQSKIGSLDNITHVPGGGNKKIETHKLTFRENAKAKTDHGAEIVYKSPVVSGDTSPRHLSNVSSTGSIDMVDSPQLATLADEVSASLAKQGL

Compound: COc1cc(/C=C/C(=O)CC(=O)/C=C/c2ccc(O)c(OC)c2)ccc1O [curcumin]
- tau oligomer level, T22 immunoreactivity, direct ELISA: significant decrease in T22 immunoreactivity; also recorded: significant decrease in oligomers
